Experimental data as given in paper PMC7271289, “Anti-Inflammatory and Anticoagulant Activities of Synthesized NSAID Prodrug Esters” (Scientifica, 2020).
Like-named read-outs stand apart in the source and are kept apart here.

What was measured:
COX2 [1] = molecular target: T1, COX2 (Homo sapiens, UniProt P35354); assay: biochemical
T1 construct: purchased Cayman Chemical, USA 560131
T1 sequence (P35354 18-604): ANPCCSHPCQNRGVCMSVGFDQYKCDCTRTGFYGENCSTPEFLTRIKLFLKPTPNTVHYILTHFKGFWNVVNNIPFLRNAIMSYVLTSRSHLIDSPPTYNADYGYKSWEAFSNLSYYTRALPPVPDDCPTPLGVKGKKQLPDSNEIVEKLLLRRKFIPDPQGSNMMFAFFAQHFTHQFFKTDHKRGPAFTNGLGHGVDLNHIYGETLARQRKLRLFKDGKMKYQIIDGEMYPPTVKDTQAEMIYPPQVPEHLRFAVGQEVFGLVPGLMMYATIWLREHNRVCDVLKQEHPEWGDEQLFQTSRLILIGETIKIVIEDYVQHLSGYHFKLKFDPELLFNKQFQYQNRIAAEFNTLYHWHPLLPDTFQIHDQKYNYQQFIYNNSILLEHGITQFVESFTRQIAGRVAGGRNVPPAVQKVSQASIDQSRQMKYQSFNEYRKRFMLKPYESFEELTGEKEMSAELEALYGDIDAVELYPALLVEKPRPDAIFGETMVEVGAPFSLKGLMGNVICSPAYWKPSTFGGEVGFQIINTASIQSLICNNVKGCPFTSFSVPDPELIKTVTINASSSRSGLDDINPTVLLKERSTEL
Protocol: IR (infrared) spectra were done using FTIR (Thermo Fisher Nicolet IS5). […] Nuclear magnetic resonance (NMR) spectra were obtained using the Bruker Avance (300 MHz) spectrometer, micropipettes (Finnpipette, Finland), incubator (Nuve, Turkey), syringe filter 0.45 μm pore size (Microlab, China), microbroth plate (Greiner bio-one, North America), and LABiTec (Germany) for PT and aPTT tests.
The plate is washed with a buffer solution, and Ellman's reagent, which contains the substrate of acetylcholinesterase, is added to the well. […] The anti-inflammatory effect of the tested compounds was evaluated by calculating the percentage inhibition of PGE2 production.

[2] = test system: platelet poor citrated plasma; assay: Prothrombin time (PT) test; assay type: biochemical, human; details: drug sample 3000 mg/L; for PT Average ± SD: average of three volunteers; for PT: equal volume with plasma, 5 min at 37°C
Protocol: (§1) PT and aPTT tests were carried out simultaneously. Blood samples from three healthy volunteers were collected in sodium citrated blood tubes (Vacutainer, BD). Blood samples were then centrifuged for 15 min at 1500 rpm to prepare platelet poor citrated plasma. The LABiTec (Germany) apparatus was used for the determination of PT and aPTT. Equal volumes of drug samples (3000 mg/L) and platelet-depleted plasma were incubated for 5 min at 37°C. The PT test was performed as follows: a 100 μl of tissue thromboplastin (HUMAN) was added to 50 μl of prewarmed mixture, and clotting time was measured. For the aPTT test, 50 μl of rabbit brain extract was added to equal volume of the prewarmed platelet poor plasma-extract mixture incubated for 1 minute after which 50 μl of 0.025 M calcium chloride (HUMAN) was added and clotting time was measured; PBS was used as control.

[3] = test system: platelet poor citrated plasma; assay: Activated partial thromboplastin time (aPTT) test; assay type: biochemical, human; details: drug sample 3000 mg/L; for aPTT Average ± SD: average of three volunteers; for aPTT: equal volume with plasma, 5 min at 37°C
Protocol: as §1

COX1 [4] = molecular target: T2, COX1 (Ovis aries, UniProt P05979); assay: COX inhibitor screening assay kit (Cayman No. 560131), COX1; assay type: biochemical; set-up: purchased Cayman Chemical, USA 560131; details: for IC50: ELISA kit, calculated from percentage inhibition of PGE2 production, read-out: IC50 for COX1 enzyme (converted)
T2 sequence (P05979 25-600): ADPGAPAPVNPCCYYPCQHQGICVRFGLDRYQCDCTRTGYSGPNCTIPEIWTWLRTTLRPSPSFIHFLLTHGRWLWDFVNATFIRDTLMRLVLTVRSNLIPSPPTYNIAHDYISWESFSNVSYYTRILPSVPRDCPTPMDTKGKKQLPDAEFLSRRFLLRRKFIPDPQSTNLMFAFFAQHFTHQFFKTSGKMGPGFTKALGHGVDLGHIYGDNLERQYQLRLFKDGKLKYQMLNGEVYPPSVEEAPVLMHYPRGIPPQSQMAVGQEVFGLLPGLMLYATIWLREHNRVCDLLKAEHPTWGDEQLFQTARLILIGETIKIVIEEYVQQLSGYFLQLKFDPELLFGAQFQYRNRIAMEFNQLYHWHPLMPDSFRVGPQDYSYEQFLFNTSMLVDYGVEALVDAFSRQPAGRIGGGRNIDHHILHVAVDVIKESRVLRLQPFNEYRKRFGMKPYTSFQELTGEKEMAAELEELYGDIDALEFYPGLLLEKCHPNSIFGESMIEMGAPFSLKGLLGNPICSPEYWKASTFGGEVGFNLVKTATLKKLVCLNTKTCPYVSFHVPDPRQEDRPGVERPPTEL
Protocol: The instrumentation used in this project includes magnetic stirrer and heater (LM-1003), weighing balance (Adventurer-OHAVS-AR2140), and rotaevaporator (Heidolph-OB2000). IR (infrared) spectra were done using FTIR (Thermo Fisher Nicolet IS5). The UV-VIS spectra were done using the JENWAY-7315 spectrophotometer. Nuclear magnetic resonance (NMR) spectra were obtained using the Bruker Avance (300 MHz) spectrometer, micropipettes (Finnpipette, Finland), incubator (Nuve, Turkey), syringe filter 0.45 μm pore size (Microlab, China), microbroth plate (Greiner bio-one, North America), and LABiTec (Germany) for PT and aPTT tests. The Cyclooxygenase (COX) enzyme inhibition test was performed using COX inhibitor screening assay kit No. 560131 Cayman Chemical, USA and was read by Elisaplate Reader (BioRad, Japan).
COX1 and COX2 inhibition activities were determined using a COX inhibitor screening assay kit No. 560131 by Cayman Chemical, USA. The plate is washed with a buffer solution, and Ellman's reagent, which contains the substrate of acetylcholinesterase, is added to the well. The yellow product of this enzymatic reaction is determined spectrophotometrically in a microplate reader (BioRad, Japan) at 415 nm. […]. The anti-inflammatory effect of the tested compounds was evaluated by calculating the percentage inhibition of PGE2 production.

COX2 [5] = molecular target: T1, COX2; details: previous published literature; read-out: inhibition activity for COX2 enzyme (converted); cited from earlier work
COX1 [6] = molecular target: T2, COX1; details: previous published literature; cited from earlier work

Structure (SMILES) | IC50 (COX2 [1]; ELISA kit, calculated from percentage inhibition of PGE2 production, read-out: IC50 for COX2 enzyme (converted)) | PT Average ± SD [2] | PT ([2]; volunteer 1) | PT ([2]; volunteer 2) | PT ([2]; volunteer 3) | aPTT Average ± SD [3] | aPTT ([3]; volunteer 1) | aPTT ([3]; volunteer 2) | aPTT ([3]; volunteer 3) | IC50 (COX1 [4]) | selectivity COX1 versus COX2 (COX1 [4]; comparison of the COX1 and COX2 IC50) | IC50 (COX2 [1]) | aPTT Average ± SD ([3]; listed as naproxen-paracetamol ester) | IC50 (COX2 [5]) | inhibition activity for COX1 enzyme (COX1 [6])
CC(=O)Nc1ccc(OC(=O)C(C)c2ccc(CC(C)C)cc2)cc1 (stereo not drawn) [Ibu-Para ester, 4-Acetamidophenyl 2-(4-isobutylphenyl) propanoate] | 6.5 µM | 23.8 ± 6.08 s | 19.8 s | 20.8 s | 30.8 s | 71 ± 0.9 s | 71.2 s | 71.8 s | 70 s | 1.56 µM | more selective towards COX1 | – | – | – | –
CC(C)Cc1ccc(C(C)C(=O)O)cc1 (stereo not drawn) [Ibuprofen, reference compound] | – | 21.3 ± 3.3 s | – | – | – | – | – | – | – | – | – | – | – | – | –
COc1ccc2cc([C@H](C)C(=O)Oc3ccc(NC(C)=O)cc3)ccc2c1 [Nap-Para ester] | – | 21.8 ± 2.86 s | 20.4 s | 19.9 s | 25.1 s | 69.9 ± 8.79 s | 78.2 s | 70.9 s | 60.7 s | 4.13 µM | – | 5.23 µM | 69.9 ± 7.7 s | – | –
COc1ccc2cc([C@H](C)C(=O)O)ccc2c1 [Naproxen] | – | – | – | – | – | – | – | – | – | – | – | – | – | 5.65 µM | –
CC(=O)Nc1ccc(O)cc1 [Paracetamol, reference compound] | – | 21.7 ± 4.52 s | 18.5 s | 19.4 s | 27.1 s | 72 ± 8.7 s | 73.1 s | 62.8 s | 80.2 s | – | – | – | – | – | less IC50 inhibition activity
